Measured values published in patent publication US20200315241A1 (Nude Nicotine, Inc., priority 2017, published 2020).
Like-named read-outs stand apart in the source and are kept apart here.

Columns and labels:
[1] = cited from earlier work
[2] = nicotine salt complex
respiratory tract = details: user perception, nicotine citrate compared with nicotine hexanoate
[3] = free-base nicotine; depending on concentration; cited from earlier work
[4] = Table 5, organic acid, second value
[5] = Table 7, nicotine salt (organic acid)
[6] = Table 7, nicotine salt (organic acid), second value
[7] = Table 7, nicotine salt (organic acid), third value printed in the cell

| Molecule | pKa [1, 5] | other results |
| --- | --- | --- |
| CC(=O)CC(=O)O [3-Oxobutanoic Acid (Acetoacetic Acid), 3-Oxobutanoic Acid] | – | pKa ([1]; Table 5, organic acid): 3.58 |
| O=C(O)C[C@H](C(=O)O)[C@@H](O)C(=O)O [Isocitric Acid] | – | pKa ([1]; Table 5, organic acid): 3.29; pKa [1, 4]: 4.71; pKa ([1]; Table 5, organic acid, third value printed in the cell): 6.40 |
| O=C(O)CC(O)C(=O)O (centres unmarked) [Malic Acid] | – | pKa ([1]; Table 5, organic acid): 3.51; pKa [1, 4]: 5.03; pKa1 ([1]; pH for binding of second carboxylic acid group): 5.03 |
| CN1CCCC1c1cccnc1.O=C(O)C(=O)O.O=C(O)CC(O)C(=O)O (centres unmarked) [Nicotine N-malate-N′-oxalate] | – | pH [2]: ~5.5 |
| CC(=O)O.CN1CCCC1c1cccnc1 (centres unmarked) [Nicotine acetate] | – | pH [2]: ~6.5 |
| CN1CCCC1c1cccnc1.C[C@H](N)C(=O)O (centres unmarked) [Nicotine alanate] | 2.34 | – |
| CN1CCCC1c1cccnc1.O=C(O)C=C(CC(=O)O)C(=O)O (stereo not drawn) [Nicotine cis-aconitate] | 1.95 | – |
| CN1CCCC1c1cccnc1.O=C(O)CC(O)(CC(=O)O)C(=O)O [Nicotine citrate] | – | throat hit / sensation in the respiratory tract (respiratory tract): stronger throat hit |
| CN1CCCC1c1cccnc1.NCC(=O)O (centres unmarked) [Nicotine glycinate] | 2.34 | – |
| CN1CCCC1c1cccnc1.O=C(O)CC(C(=O)O)C(O)C(=O)O (centres unmarked) [Nicotine isocitrate] | 3.29 | pKa [1, 6]: 4.71; pKa [1, 7]: 6.40 |
| CN1CCCC1c1cccnc1.O=C(O)CC(O)C(=O)O (centres unmarked) [Nicotine malate] | – | pH [2]: around 6.5 |
| CN1CCCC1c1cccnc1.N[C@@H](Cc1ccccc1)C(=O)O (centres unmarked) [Nicotine phenylalanate] | 1.83 | – |
| C#CC(=O)O.CN1CCCC1c1cccnc1 (centres unmarked) [Nicotine propiolate] | 1.84 | – |
| CCC(=O)O.CN1CCCC1c1cccnc1 (centres unmarked) [Nicotine propionate] | – | pH [2]: ~6.5 |
| CN1CCCC1c1cccnc1.O=C(O)C=C(CC(=O)O)C(=O)O (stereo not drawn) [Nicotine trans-aconitate] | 2.80 | pKa [1, 6]: 4.46 |
| CN1CCCC1c1cccnc1.O=C(O)c1cc(C(=O)O)cc(C(=O)O)c1 [Nicotine trimesate] | 3.12 | pKa [1, 6]: 3.89; pKa [1, 7]: 4.70 |
| CC(=O)C(=O)O [Pyruvic Acid] | – | pKa ([1]; Table 5, organic acid): 2.50 |
| O=C(O)/C=C(/CC(=O)O)C(=O)O [cis-Aconitic Acid] | – | pKa ([1]; Table 5, organic acid): 1.95 |
| CN1CCCC1c1cccnc1 (centres unmarked) [nicotine] | – | pH [3]: ~10 |
| Nicotine 2-hydroxyisocaproate | 4.26 | – |
| Nicotine 3-hydroxyglutarate | 3.52 | – |

| Molecule | pKa [1, 5] | other results |
| --- | --- | --- |
| Nicotine 4-hydroxybenzoate | 4.54 | – |
| Nicotine acetoacetate | 3.58 | – |
| Nicotine acetylsalicylate | 3.49 | – |
| Nicotine asparaginate | 2.02 | – |
| Nicotine cinnamate | 4.44 | – |
| Nicotine cysteinate | 1.96 | – |
| Nicotine gluconate | 3.86 | – |
| Nicotine glutarate | 4.34 | – |
| Nicotine hexanoate | 4.88 | – |
| Nicotine isocaproate | 5.09 | – |
| Nicotine levulinate | 4.64 | pKa [1]: 4.64 |
| Nicotine lysinate | 2.18 | – |
| Nicotine methioninate | 2.28 | – |
| Nicotine phthalate | 2.76 | pKa [1, 6]: 4.92 |
| Nicotine pyruvate | 2.50 | – |
| Nicotine tryptophanate | 2.83 | – |
| Nicotine valerate | 4.84 | – |
| Nicotine valinate | 2.32 | – |
| Nicotine vanillate | 4.51 | – |
| Oxalic Acid | – | pKa ([1]; Table 5, organic acid): 1.46; pKa [1, 4]: 4.40 |
